# Laboratory results: patent publication US20260285850A1, “SUBSTITUTED OXAZOLIDINONES AND IMIDAZOLINONES AS HERBICIDES” (FMC CORPORATION, priority 2023, published 2026)
# Columns and labels:
# Format in all cases: in vivo
# [1] = test system: barnyardgrass (Echinochloa crus-galli); test: Test A preemergence soil spray, visual injury rating 0-100; conditions: 10 days
# Procedure, shortened: (§1)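 Compound in a non-phytotoxic, surfactant-containing solvent is applied either as a directed soil spray before seedlings emerge or onto emerged plants 2-10 cm tall; pots hold a loam-sand blend. Plants grow 10 days under greenhouse conditions and are rated by eye against untreated controls (0 no effect, 100 complete control).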
# [2] = test system: blackgrass (Alopecurus myosuroides); test: as above; conditions: 10 days
# Procedure, shortened: as §1
# corn (Zea mays) [3] = test: as above; conditions: 10 days
# Procedure, shortened: as §1
# [4] = test system: green foxtail (Setaria viridis); test: as above; conditions: 10 days
# Procedure, shortened: as §1
# kochia (Bassia scoparia) [5] = test: as above; conditions: 10 days
# Procedure, shortened: as §1
# [6] = test system: oat, wild (wild oat, Avena fatua); test: as above; conditions: 10 days
# Procedure, shortened: as §1
# [7] = test system: palmer (palmer amaranth, palmer pigweed, Amaranthus palmeri); test: as above; conditions: 10 days
# Procedure, shortened: as §1
# [8] = test system: ragweed (common ragweed, Ambrosia artemisiifolia); test: as above; conditions: 10 days
# Procedure, shortened: as §1
# [9] = test system: ryegrass, Italian (italian ryegrass, Lolium multiflorum); test: as above; conditions: 10 days
# Procedure, shortened: as §1
# soybean (Glycine max) [10] = test: as above; conditions: 10 days
# Procedure, shortened: as §1
# [11] = test system: wheat (Triticum aestivum); test: as above; conditions: 10 days
# Procedure, shortened: as §1
# [12] = test system: barnyardgrass (Echinochloa crus-galli); test: Test A postemergence application, visual injury rating 0-100
# Procedure, shortened: as §1
# [13] = test system: blackgrass (Alopecurus myosuroides); test: as above
# Procedure, shortened: as §1
# corn (Zea mays) [14] = test: as above
# Procedure, shortened: as §1
# [15] = test system: galium (catchweed bedstraw, Galium aparine); test: as above
# Procedure, shortened: as §1
# [16] = test system: green foxtail (Setaria viridis); test: as above
# Procedure, shortened: as §1
# [17] = test system: horseweed (Erigeron canadensis); test: as above
# Procedure, shortened: as §1
# kochia (Bassia scoparia) [18] = test: as above
# Procedure, shortened: as §1
# [19] = test system: oat, wild (wild oat, Avena fatua); test: as above
# Procedure, shortened: as §1
# [20] = test system: palmer (palmer amaranth, palmer pigweed, Amaranthus palmeri); test: as above
# Procedure, shortened: as §1
# [21] = test system: ragweed (common ragweed, Ambrosia artemisiifolia); test: as above
# Procedure, shortened: as §1
# [22] = test system: ryegrass, Italian (italian ryegrass, Lolium multiflorum); test: as above
# Procedure, shortened: as §1
# soybean (Glycine max) [23] = test: as above
# Procedure, shortened: as §1
# [24] = test system: wheat (Triticum aestivum); test: as above
# Procedure, shortened: as §1
# [25] = test system: barnyardgrass (Echinochloa crusgalli); test: Test B flooded paddy test, visual plant response rating 0-100; conditions: 250 g ai/ha, Flood, applied to paddy water, evaluated after 13 days
# Procedure, shortened: (§2)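 Plants were grown to the 2-leaf stage, then pots were flooded to 3 cm above the soil and test compounds were applied directly into the paddy water. Water depth was held there throughout; after 13 days in a greenhouse, injury was scored visually against untreated controls.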
# [26] = test system: ducksalad (Heteranthera limosa); test: as above; conditions: 250 g ai/ha, Flood, applied to paddy water, evaluated after 13 days
# Procedure, shortened: as §2
# rice (Oryza sativa) = test: as above; conditions: 250 g ai/ha, Flood, applied to paddy water, evaluated after 13 days
# Procedure, shortened: as §2
# [27] = test system: sedge, umbrella (small-flower umbrella sedge, Cyperus difformis); test: as above; conditions: 250 g ai/ha, Flood, applied to paddy water, evaluated after 13 days
# Procedure, shortened: as §2
# [28] = 62 g ai/ha, 0 = no effect, 100 = complete control
# [29] = 62 g ai/ha, postemergence, 10 days, 0 = no effect, 100 = complete control
# [30] = Postemergence, 16 g ai/ha, greenhouse 10 days, 0 no effect, 100 complete control
structure (smiles),measurement,setting,value
CC1(C(=O)NC2CC=C(C(=O)O)C2)CN(c2cc(F)cc(F)c2)C(=O)O1 (stereo not shown) [Compound 94],Barnyardgrass plant response rating,"[1]; 16 g ai/ha, 0 to 100 scale",40
same,Barnyardgrass plant response rating (0-100),[1]; [28],100
same,Blackgrass plant response rating,"[2]; 16 g ai/ha, 0 to 100 scale",30
same,Blackgrass plant response rating (0-100),[2]; [28],60
same,Corn plant response rating,"corn (Zea mays) [3]; 16 g ai/ha, 0 to 100 scale",40
same,Corn plant response rating (0-100),corn (Zea mays) [3]; [28],80
same,"Foxtail, Green plant response rating","[4]; 16 g ai/ha, 0 to 100 scale",10
same,"Foxtail, Green plant response rating (0-100)",[4]; [28],90
same,Kochia plant response rating,"kochia (Bassia scoparia) [5]; 16 g ai/ha, 0 to 100 scale",0
same,Kochia plant response rating (0-100),kochia (Bassia scoparia) [5]; [28],90
same,"Oat, Wild plant response rating","[6]; 16 g ai/ha, 0 to 100 scale",10
same,"Oat, Wild plant response rating (0-100)",[6]; [28],50
same,"Pigweed, Palmer plant response rating","[7]; 16 g ai/ha, 0 to 100 scale",20
same,"Pigweed, Palmer plant response rating (0-100)",[7]; [28],60
same,Ragweed plant response rating,"[8]; 16 g ai/ha, 0 to 100 scale",20
same,Ragweed plant response rating (0-100),[8]; [28],40
same,"Ryegrass, Italian plant response rating","[9]; 16 g ai/ha, 0 to 100 scale",60
same,"Ryegrass, Italian plant response rating (0-100)",[9]; [28],70
same,Soybean plant response rating,"soybean (Glycine max) [10]; 16 g ai/ha, 0 to 100 scale",10
same,Soybean plant response rating (0-100),soybean (Glycine max) [10]; [28],30
same,Wheat plant response rating,"[11]; 16 g ai/ha, 0 to 100 scale",60
same,Wheat plant response rating (0-100),[11]; [28],90
same,Barnyardgrass plant response rating (0-100),[12]; [29],100
same,Barnyardgrass plant response rating (0 to 100 scale),[12]; [30],100
same,Blackgrass plant response rating (0-100),[13]; [29],90
same,Blackgrass plant response rating (0 to 100 scale),[13]; [30],80
same,Corn plant response rating (0-100),corn (Zea mays) [14]; [29],100
same,Corn plant response rating (0 to 100 scale),corn (Zea mays) [14]; [30],100
same,Galium plant response rating (0-100),[15]; [29],90
same,Galium plant response rating (0 to 100 scale),[15]; [30],70
same,"Foxtail, Green plant response rating (0-100)",[16]; [29],90
same,"Foxtail, Green plant response rating (0 to 100 scale)",[16]; [30],60
same,Horseweed plant response rating (0-100),[17]; [29],60
same,Horseweed plant response rating (0 to 100 scale),[17]; [30],20
same,Kochia plant response rating (0-100),kochia (Bassia scoparia) [18]; [29],90
same,Kochia plant response rating (0 to 100 scale),kochia (Bassia scoparia) [18]; [30],80
same,"Oat, Wild plant response rating (0-100)",[19]; [29],90
same,"Oat, Wild plant response rating (0 to 100 scale)",[19]; [30],40
same,"Pigweed, Palmer plant response rating (0-100)",[20]; [29],90
same,"Pigweed, Palmer plant response rating (0 to 100 scale)",[20]; [30],50
same,Ragweed plant response rating (0-100),[21]; [29],50
same,Ragweed plant response rating (0 to 100 scale),[21]; [30],50
same,"Ryegrass, Italian plant response rating (0-100)",[22]; [29],90
same,"Ryegrass, Italian plant response rating (0 to 100 scale)",[22]; [30],70
same,Soybean plant response rating (0-100),soybean (Glycine max) [23]; [29],70
same,Soybean plant response rating (0 to 100 scale),soybean (Glycine max) [23]; [30],60
same,Wheat plant response rating (0-100),[24]; [29],90
same,Wheat plant response rating (0 to 100 scale),[24]; [30],60
same,"Plant response rating, Barnyardgrass (0 to 100 scale, 0 is no effect and 100 is complete control)",[25],95
same,"Plant response rating, Ducksalad (0 to 100 scale, 0 is no effect and 100 is complete control)",[26],95
same,"Plant response rating, Rice (0 to 100 scale, 0 is no effect and 100 is complete control)",rice (Oryza sativa),75
same,"Plant response rating, Sedge, Umbrella (0 to 100 scale, 0 is no effect and 100 is complete control)",[27],95
